In article PMC7126595 (Bioorganic & Medicinal Chemistry, 2018):

What was measured:
Format in all cases: cell-based
[1] = tested on: varicella-zoster virus (VZV TK+); experiment: microbe, parasite or virus in culture; details: Human alphaherpesvirus 3, HEL, read-out: EC50 (HEL cells) VZV TK+
[2] = tested on: human cytomegalovirus (HCMV Davis strain); experiment: Antiviral activity against HCMV Davis in HEL cells; details: Human betaherpesvirus 5, HEL, read-out: EC50 (HEL cells) HCMV Davis
[3] = tested on: yellow fever virus (YFV); experiment: microbe, parasite or virus in culture; details: Vero, read-out: EC50 (Vero cells) YFV
[4] = tested on: Sindbis Virus (SINV); experiment: Antiviral activity against Sindbis virus in Vero cells; details: read-out: EC50 (Vero cells) SINV, Vero cells, viral induced cytopathic effect

Structure (SMILES): O=c1[nH]c(=O)n([C@H]2C[C@H](O)[C@@H](CO)O2)cc1/C=C/Br [Brivudin]
- EC50 [1]: 0.012 µM

Structure (SMILES): Nc1ccn(C[C@@H](CO)OCP(=O)(O)O)c(=O)n1 [Cidofovir]
- EC50 [2]: 760 nM

Structure (SMILES): C/C(=C\CP(=O)(N[C@@H](C)C(=O)OC(C)C)Oc1cccc2ccccc12)Cn1cc(C)c(=O)[nH]c1=O (stereo partly drawn) [E-8a, (E)-N^1-(4′-O-(1-Naphthyl)-(isopropyloxy-L-alanine)-phosphinyl-2′-methyl-but-2′-enyl)thymine]
- EC50 [1]: 44.7 µM

Structure (SMILES): COc1c(C)c2c(c(O)c1C/C=C(\C)CCC(=O)O)C(=O)OC2 [Mycophenolic acid]
- EC50 [3]: 4 µM
- EC50 [4]: 4 µM
